# Measured values: US12186405B2, “Cleavable tetrazine used in bio-orthogonal drug activation” (TAGWORKS PHARMACEUTICALS B.V., priority 2016, dated 2025)
# How the values were obtained:
# [1] = Reactivity (second order rate constant k2) between TZ Triggers and TCO Activator 4.9 in MeCN at 20° C.; type: physicochemical
# Description: The second order rate constant of the reaction (k2) between a TZ and TCO 4.9 was determined under pseudo first order conditions in MeCN at 20° C. using UV spectroscopic monitoring. […] From the decrease of this absorption, the half-life of the pseudo first order reaction between TZ and TCO was determined. The second order rate constant k2 was obtained by calculation from this half-life and the concentration of TCO
# [2] = Stability of tetrazine (TZ) Triggers in a MeCN/PBS mixture
# Description: (§2) 10 μL of a 25 mM TZ stock solution in DMSO (2.5×10^−7 mol TZ) was diluted with MeCN and PBS to a total volume of 1 mL. The aqueous solution was incubated at 20° C. or at 37° C. At selected time points, the TZ solution was analyzed by HPLC-PDA/MS.
# [3] = Stability of TZ Triggers in 50% mouse serum/PBS; type: in vitro ADME; conditions: 37° C.
# Description: The mixture was incubated at 37° C. […] The stability was determined as outlined in Example 5.
# [4] = Rate of release of a Construct from the IEDDA adduct in 50% mouse serum/PBS; type: in vitro ADME; conditions: 37° C., 21 h
# Description: 10 μL of a 25 mM TZ stock solution in DMSO (2.5×10^−7 mol TZ) was diluted with MeCN (50 μL), PBS (475 μL), and mouse serum (475 μL). Then, a stock solution of the appropriate TCO (20 μL 50 mM in DMSO; 1.0×10^−6 mol) was added, and the mixture was incubated at 37° C. At selected time points, aliquots (250 μL) were taken, diluted with cold MeCN (500 μL), stored at 4° C. for 30 min, and then centrifuged at 13400 rpm for 5 min. Part of the clear supernatant (250 μL) was diluted with water (500 μL) and the sample was analyzed by HPLC-PDA/MS.
# [5] = Rate of release of Constructs from IEDDA adducts formed by activation of TZ Trigger with TCO Activator 4.9; type: physicochemical
# Description: (§1) Then, 10 μL of a 50 mM TCO 4.9 stock solution in DMSO (5.0×10^−7 mol TCO) was added. After the complete disappearance of the pink color (this takes typically between 5 and 30 min, and is due to the IEDDA reaction between TZ and TCO thereby forming IEDDA adducts), the sample was diluted with PBS to a total volume of 1 mL (t=0). […] At selected time points, this solution was analyzed by HPLC-PDA/MS. The decrease of the IEDDA adduct absorption(s) and/or the rise of the leaving group absorption indicated the conversion of the release reaction. […] Alternatively, the rate of the release reaction can be indicated by the conversion (in %) after a certain reaction time (in hours).
# [6] = test system: LS174T colon carcinoma xenografts; experiment: In vivo on-tumor reaction between ADC and TCO activators (tumor blocking, ^111In-TCO probe uptake); design: species or system mouse; conditions: ADC (2 mg/kg), one hour later ^111In-TCO probe, 4 h after probe injection
# Description: DOTA-PEG11-TCO probe 4.4 was labeled with indium-111 in 0.2 M ammonium acetate buffer (pH 6.0) for 10 min at 60° C. followed by a DTPA-challenge to complex any unreacted radiometal. The radiolabeling yield (>95%) and radiochemical purity (>95%) of the obtained ^111In-TCO probe was assessed by radio-ITLC and radio-RP-HPLC, respectively. The on-tumor reactivity between AVP0450-15.4 ADC and two different activators, sTCO—COOH (4.8) and sTCO-PEG11-OH (4.6) in two different doses (100 and 1000 eq with respect to ADC) was evaluated with an in vivo competition assay (tumor blocking), as previously described for a CC49-TCO-Dox conjugate and tetrazine-activators (R. Rossin et al., Bioconjug Chem 2016, 27, 1697-1706). Briefly, mice bearing subcutaneous LS174T colon carcinoma xenografts (n=4 per group) were administered the ADC (2 mg/kg) followed after 48 h by the activator and, one hour later, by the ^111In-TCO probe (1 eq with respect to ADC). The probe uptake in tumors was then compared with mice that received the ADC followed only by the ^111In-TCO probe (no blocking) and with mice that received the ^111In-TCO probe alone (complete blocking). All mice were euthanized 4 h after probe injection. Blood samples were obtained from heart puncture, tumors and other tissues of interest were dissected, blotted dry, weighed and counted in a gamma-counter.
# [7] = Reactivity (k2) as Example 6 but assessed with sTCO 4.8; type: physicochemical; conditions: assessed with sTCO 4.8 and not TCO 4.9; MeCN at 20° C.
# Description: A cuvette was filled with 3 mL of a 3.33 mM TCO solution in MeCN (1.0×10^−5 mol TCO) and this solution was equilibrated at 20° C. […] From the decrease of this absorption, the half-life of the pseudo first order reaction between TZ and TCO was determined. The second order rate constant k2 was obtained by calculation from this half-life and the concentration of TCO
# [8] = Rate of release of Constructs as Example 7 but after reaction with sTCO 4.8; type: physicochemical; conditions: Method E: 5% MeCN in PBS at 37° C.
# Description: as §1, with “Then, 10 μL of a 50 mM TCO 4.9 stock solution in DMSO (5.0×10^−7 mol TCO) was added.” left out
# physchem = conditions: buffer
# Description: as §2
# [9] = Rate of release of Constructs from IEDDA adducts formed by activation of TZ Trigger with TCO Activator 4.9; type: physicochemical; conditions: Method F: MeCN at 37° C.; 23 h
# [10] = Method A: 33% MeCN in PBS at 20° C., 16 h
# [11] = Method C: 20% MeCN in PBS at 37° C., 16 h
structure (smiles),measurement,setting,value
O=C(NCc1ccccc1)OCc1nnc(COC(=O)NCc2ccccc2)nn1 [Compound 2.4],Reactivity k2,[1]; TZ with TCO in MeCN at 20° C.,24 M⁻¹ s⁻¹
O=C(Nc1ccccc1)OC/C=C/c1nnc(-c2ccccc2)nn1 [Compound 2.53],half-life at 250 µM,[2],> 400 h
CC(C)c1nnc(COC(=O)N(C)Cc2ccccc2)nn1 [Compound 2.19],Reactivity k2,[1]; TZ with TCO in MeCN at 20° C.,0.79 M⁻¹ s⁻¹
same,Stability t1/2,[3],32 h
same,Release % (conversion),"[4]; Dienophile 4.0, axial isomer",61% (21 h)
O=C(NCc1nnc(CNC(=O)Oc2ccccc2)nn1)Oc1ccccc1 [Compound 3.2],Release % (conversion),"[5]; Method B: 33% MeCN in PBS at 37° C., 19 h",25% (19 h)
CC(OC(=O)c1ccccc1)c1nnc(C(C)OC(=O)c2ccccc2)nn1 (centres unmarked) [Compound 2.7],Release % (conversion),[5]; [10],96% (16 h)
same,half-life at 250 µM,[2],18 h
O=C(NCCOCCOCCOCCOCCOCCOCCOCCOCCOCCO)[C@@H]1[C@@H]2CC/C=C/CC[C@@H]21 [Compound 4.6],^111In-uptake in tumor,[6]; after 48 h activator 100 eq,0.15 ± 0.05 % ID/g
same,^111In-uptake in tumor,[6]; after 48 h activator 1000 eq,0.14 ± 0.52 % ID/g
Cc1cc(C)cc(NC(=O)OC(C)c2nnc(-c3ccccc3)nn2)c1 (racemic) [Compound 2.17],Reactivity k2,[1]; TZ with TCO in MeCN at 20° C.,4.5 M⁻¹ s⁻¹
CN(Cc1ccccc1)C(=O)OCc1nnc(CCN(C)C(=O)OC(C)(C)C)nn1 [Compound 2.24],Reactivity k2,[1]; TZ with TCO in MeCN at 20° C.,4.6 M⁻¹ s⁻¹
same,Stability t1/2,[3],16 h
same,Release % (conversion),"[4]; Dienophile 4.0, axial isomer",51% (21 h)
CC(OC(=O)N(C)Cc1ccccc1)c1nnc(C(C)OC(=O)N(C)Cc2ccccc2)nn1 (mixture of isomers) [Compound 2.36],Release % (conversion),[5]; [11],100% (16 h)
"O=C(O)[C@@H]1[C@@H]2CC/C=C/CC[C@@H]21 [Compound 4.8, (E-endo)-bicyclo[6.1.0]non-4-ene-9-carboxylic acid]",^111In-uptake in tumor,[6]; after 48 h activator 100 eq,0.13 ± 0.03 % ID/g
same,^111In-uptake in tumor,[6]; after 48 h activator 1000 eq,0.10 ± 0.03 % ID/g
CC(OC(=O)N(C)c1ccccc1)c1nnc(-c2ccccc2)nn1 (racemic) [Compound 2.22],Reactivity k2,[1]; TZ with TCO in MeCN at 20° C.,2.51 M⁻¹ s⁻¹
CC(OC(=O)N(C)Cc1ccccc1)c1nnc(-c2ccccc2)nn1 (racemic) [Compound 2.21],Reactivity k2,[1]; TZ with TCO in MeCN at 20° C.,2.54 M⁻¹ s⁻¹
CC(OC(=O)NCc1ccccc1)c1nnc(C(C)OC(=O)NCc2ccccc2)nn1 (mixture of isomers) [Compound 2.5],Reactivity k2,[1]; TZ with TCO in MeCN at 20° C.,1.5 M⁻¹ s⁻¹
CCN(Cc1nnc(-c2cccc(NC(=O)COCCOCCOCCOCCOCCOCCOCCOCCOCCOCCOC)c2)nn1)C(=O)Oc1ccc(COC(=O)Nc2ccc3c(C)cc(=O)oc3c2)cc1 [Compound 3.33],Reactivity k2,[1]; TZ with TCO in MeCN at 20° C. (cyclization series),4.7 M⁻¹ s⁻¹
same,Reactivity k2,[7],520 ([5]) M^−1 s^−1
same,Release % (conversion),"[5]; Method E: 5% MeCN in PBS at 37° C., 1 h",50%
same,Release % (conversion),"[5]; Method E: 5% MeCN in PBS at 37° C., 4 h",80%
same,Release % (conversion),"[5]; Method E: 5% MeCN in PBS at 37° C., 72 h",90%
same,Release % (conversion),[8]; 1 h,20%
same,Release % (conversion),[8]; 8 h,80%
same,half-life,physchem,200 h
CC(C)c1nnc(C(C)OC(=O)N(Cc2ccccc2)C(C)C)nn1 (centres unmarked) [Compound 2.42],Reactivity k2,[1]; TZ with TCO in MeCN at 20° C.,0.21 M⁻¹ s⁻¹
same,Release % (conversion),[5]; [11],100% (16 h)
same,half-life at 248 µM,"[3]; 50% mouse serum in PBS, read-out: Stability t1/2 (converted)",55 h
same,Release % (conversion),"[4]; Dienophile 4.8, endo isomer",77% (21 h)
same,half-life at 250 µM,[2],650 h
O=C(NC1CCCC1c1nnc(-c2ccccc2)nn1)Oc1ccccc1 (centres unmarked) [Compound 3.25],Release % (conversion),"[5]; Method G: 50% MeCN in PBS at 37° C., 16 h",57% (16 h)
same,half-life,physchem,> 140 h
CC(OC(=O)OCc1ccccc1)c1nnc(C(C)OC(=O)OCc2ccccc2)nn1 (centres unmarked) [Compound 2.8],Release % (conversion),[5]; [10],100% (16 h)
same,half-life at 250 µM,[2],6.5 h
CC(OC(=O)N(C)Cc1ccccc1)c1nnc(-c2ccc(NC(=O)OC(C)(C)C)cc2)nn1 (centres unmarked) [Compound 2.48],Reactivity k2,[1]; TZ with TCO in MeCN at 20° C.,1.46 M⁻¹ s⁻¹
same,half-life at 250 µM,[2],> 4800 h
O=C(OCc1nnc(-c2ccccc2)nn1)Oc1ccccc1 [Compound 2.18],Release % (conversion),[9],10% (23 h)
same,half-life at 250 µM,[2],< 4 h
CC(OC(=O)N(c1ccccc1)C(C)C)c1nnc(C(C)OC(=O)N(c2ccccc2)C(C)C)nn1 (mixture of isomers) [Compound 2.40],Reactivity k2,[1]; TZ with TCO in MeCN at 20° C.,1.22 M⁻¹ s⁻¹
same,Release % (conversion),"[5]; Method C: 20% MeCN in PBS at 37° C., 22 h",100% (22 h)
CC(OC(=O)N(C)Cc1ccccc1)c1nnc(-c2ccc(N)cc2)nn1 (centres unmarked) [Compound 2.49],Reactivity k2,[1]; TZ with TCO in MeCN at 20° C.,0.44 M⁻¹ s⁻¹
same,half-life at 250 µM,[2],> 4800 h
CC(C)c1nnc(C(C)OC(=O)N(C)c2ccccc2)nn1 (racemic) [Compound 2.20],Reactivity k2,[1]; TZ with TCO in MeCN at 20° C.,0.19 M⁻¹ s⁻¹
same,Release % (conversion),"[5]; Method C: 20% MeCN in PBS at 37° C., 1.3 h",45%
same,Release % (conversion),[5]; [11],100%
O=C(Oc1ccccc1)N1CCCC1c1nnc(-c2ccccc2)nn1 (centres unmarked) [Compound 3.27],Release % (conversion),"[5]; Method C: 20% MeCN in PBS at 37° C., 24 h",49%
same,Release % (conversion),"[5]; Method C: 20% MeCN in PBS at 37° C., 48 h",72%
same,half-life at 250 µM,[2],> 150 h
CC(C)c1nnc(/C=C/COC(=O)Nc2ccccc2)nn1 [Compound 2.57],Reactivity k2,[1]; TZ with TCO in MeCN at 20° C.,0.33 M⁻¹ s⁻¹
same,half-life at 250 µM,physchem,> 400 h
